In PubChem BioAssay AID248 (DTP/NCI, 2004):
Several values for one entry are separate records, joined by “and”; a condition that tells them apart may be missing. Equal entries are not always repeated. Toxic doses and inconclusive results are not listed.

Test system: L1210 leukemia ip in BDF1 mice, survival T/C
Experiment: NCI In Vivo Anticancer Drug Screen. Data for tumor model L1210 Leukemia (intraperitoneal) in B6D2F1 (BDF1) mice
Details: endpoint: mean survival time, higher = longer survival
Summary of the method: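 Tumor cells were implanted, animals were treated, and survival was followed. The result divides the treated measurement by the vehicle-control measurement.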

[1] = dose: 100.0 mg/kg/injection, schedule: Q01DX009 (ip), vehicle: Klucel (hydroxypropylcellulose) (HPC)
[2] = dose: 100.0 mg/kg/injection, schedule: Q04DX003 (ip), vehicle: Klucel (hydroxypropylcellulose) (HPC)
[3] = dose: 200.0 mg/kg/injection, schedule: Q01DX009 (ip), vehicle: Klucel (hydroxypropylcellulose) (HPC)
[4] = dose: 200.0 mg/kg/injection, schedule: Q04DX003 (ip), vehicle: Klucel (hydroxypropylcellulose) (HPC)
[5] = dose: 400.0 mg/kg/injection, schedule: Q04DX003 (ip), vehicle: Klucel (hydroxypropylcellulose) (HPC)
[6] = dose: 100.0 mg/kg/injection, schedule: Q04DX003 (ip), vehicle: saline with Tween-80
[7] = dose: 200.0 mg/kg/injection, schedule: Q04DX003 (ip), vehicle: saline with Tween-80
[8] = dose: 400.0 mg/kg/injection, schedule: Q04DX003 (ip), vehicle: saline with Tween-80
[9] = dose: 100.0 mg/kg/injection, schedule: Q04DX002 (ip), vehicle: Klucel (hydroxypropylcellulose) (HPC)
[10] = dose: 200.0 mg/kg/injection, schedule: Q04DX002 (ip), vehicle: Klucel (hydroxypropylcellulose) (HPC)
[11] = dose: 400.0 mg/kg/injection, schedule: Q04DX002 (ip), vehicle: Klucel (hydroxypropylcellulose) (HPC)
[12] = dose: 50.0 mg/kg/injection, schedule: Q01DX001 (ip), vehicle: saline
[13] = dose: 100.0 mg/kg/injection, schedule: Q01DX001 (ip), vehicle: saline
[14] = dose: 200.0 mg/kg/injection, schedule: Q01DX001 (ip), vehicle: saline
[15] = dose: 50.0 mg/kg/injection, schedule: Q01DX001 (ip), vehicle: Klucel (hydroxypropylcellulose) (HPC)
[16] = dose: 100.0 mg/kg/injection, schedule: Q01DX001 (ip), vehicle: Klucel (hydroxypropylcellulose) (HPC)
[17] = dose: 200.0 mg/kg/injection, schedule: Q01DX001 (ip), vehicle: Klucel (hydroxypropylcellulose) (HPC)

N#CC(C(=O)c1ccccc1)c1ccccc1 (configuration not stated)
T/C (dose: 62.5 mg/kg/injection, schedule: Q04DX002 (ip), vehicle: Klucel (hydroxypropylcellulose) (HPC)): 108 % of control | T/C (dose: 125.0 mg/kg/injection, schedule: Q04DX002 (ip), vehicle: Klucel (hydroxypropylcellulose) (HPC)): 96 % of control

CCOC(=O)C(=O)Cc1sccc1[N+](=O)[O-]
T/C [1]: 93 % of control | T/C [2]: 94 % of control | T/C [3]: 94 % of control | T/C [4]: 92 % of control | T/C (dose: 400.0 mg/kg/injection, schedule: Q01DX009 (ip), vehicle: Klucel (hydroxypropylcellulose) (HPC)): 100 % of control | T/C [5]: 100 % of control

c1ccc(C2=NN=C(c3ccccc3)CCC2)cc1
T/C (dose: 100.0 mg/kg/injection, schedule: Q04DX003 (ip), vehicle: acetone): 95 % of control | T/C (dose: 200.0 mg/kg/injection, schedule: Q04DX003 (ip), vehicle: acetone): 86 % of control | T/C (dose: 400.0 mg/kg/injection, schedule: Q04DX003 (ip), vehicle: acetone): 98 % of control

O=C(O)c1cc(Cl)ccc1O
T/C (dose: 100.0 mg/kg/injection, schedule: Q04DX002 (ip), vehicle: other): 100 % of control | T/C (dose: 200.0 mg/kg/injection, schedule: Q04DX002 (ip), vehicle: other): 103 % of control

O=C1OC2CCCC1C2 (configuration not stated)
T/C (dose: 50.0 mg/kg/injection, schedule: Q01DX001 (ip), vehicle: saline with Tween-80): 104 % of control | T/C (dose: 100.0 mg/kg/injection, schedule: Q01DX001 (ip), vehicle: saline with Tween-80): 100 % of control | T/C (dose: 200.0 mg/kg/injection, schedule: Q01DX001 (ip), vehicle: saline with Tween-80): 100 % of control

Cc1ccccc1Nc1n[nH]c(=O)n1-c1ccccc1C
T/C (dose: 100.0 mg/kg/injection, schedule: Q04DX003 (ip), vehicle: carboxymethylcellulose (CMC)): 98 % of control | T/C (dose: 200.0 mg/kg/injection, schedule: Q04DX003 (ip), vehicle: carboxymethylcellulose (CMC)): 90 % of control | T/C (dose: 400.0 mg/kg/injection, schedule: Q04DX003 (ip), vehicle: carboxymethylcellulose (CMC)): 106 % of control

C/C(=C\c1ccc([N+](=O)[O-])cc1)C(=O)Nc1ccc(S(=O)(=O)F)cc1
T/C (dose: 100.0 mg/kg/injection, schedule: Q01DX009 (ip), vehicle: saline with Tween-80): 95 % of control | T/C (dose: 200.0 mg/kg/injection, schedule: Q01DX009 (ip), vehicle: saline with Tween-80): 93 % of control | T/C (dose: 400.0 mg/kg/injection, schedule: Q01DX009 (ip), vehicle: saline with Tween-80): 98 % of control

CCOc1c(C(=O)O)cnc2ccccc12
T/C (dose: 75.0 mg/kg/injection, schedule: Q01DX001 (ip), vehicle: saline): 100 % of control

Cc1cc(C(=O)O)c(C)cc1C(=O)O
T/C [6]: 98 % of control | T/C [7]: 93 % of control | T/C [8]: 98 % of control

CC(=O)Nc1ccc(OC(=O)Nc2ccc(F)c([N+](=O)[O-])c2)cc1
T/C [1]: 118 % of control | T/C [3]: 112 % of control

COc1cc(Nc2nc(Cl)ncc2[N+](=O)[O-])cc(OC)c1OC
T/C [6]: 90 % of control | T/C [7]: 92 % of control | T/C [8]: 92 % of control

CN(C)CCCNc1nc(-c2cc(C(F)(F)F)cc(C(F)(F)F)c2)nc(C(Cl)(Cl)Cl)n1
T/C [9]: 100 % of control | T/C [10]: 92 % of control | T/C [11]: 106 % of control

CC1CCC=C2C(=O)C3OC3C(C(C)(C)O)C21C (configuration not stated)
T/C (dose: 100.0 mg/kg/injection, schedule: Q01DX009 (ip), vehicle: acetone): 98 % of control | T/C [6]: 90 % of control | T/C (dose: 200.0 mg/kg/injection, schedule: Q01DX009 (ip), vehicle: acetone): 96 % of control | T/C (dose: 400.0 mg/kg/injection, schedule: Q01DX009 (ip), vehicle: acetone): 100 % of control | T/C [8]: 93 % of control

COC(=O)c1nc(Cl)nc(N)c1Cl
T/C [2]: 94 % of control | T/C [4]: 94 % of control | T/C [5]: 97 % of control

CC(OCCO)C1CCC2C3CCC4=CC(=O)CCC4(C)C3C(O)C(C)C12C (configuration not stated)
T/C (dose: 50.0 mg/kg/injection, schedule: Q01DX001 (sc), vehicle: steriod suspending solution): 102 % of control | T/C (dose: 100.0 mg/kg/injection, schedule: Q01DX001 (sc), vehicle: steriod suspending solution): 100 % of control | T/C (dose: 200.0 mg/kg/injection, schedule: Q01DX001 (sc), vehicle: steriod suspending solution): 110 % of control | T/C (dose: 400.0 mg/kg/injection, schedule: Q01DX001 (sc), vehicle: steriod suspending solution): 102 % of control

Cc1cc(C)c(CCN(C)C)c(C)c1C
T/C [12]: 103 % of control | T/C [13]: 101 % of control | T/C [14]: 101 % of control

Cc1ccc(S(=O)(=O)OCCCN(CCCOS(=O)(=O)c2ccc(C)cc2)c2ccccc2)cc1
T/C [12]: 101 % of control | T/C [13]: 86 % of control | T/C [14]: 95 % of control | T/C (dose: 400.0 mg/kg/injection, schedule: Q01DX001 (ip), vehicle: saline): 95 % of control

O=C1Nc2ccc(Br)cc2C1=Nc1cccnc1
T/C [9]: 116 % of control | T/C [10]: 95 % of control | T/C [11]: 116 % of control

O=C1CCC(N2C(=O)C3C4C=CC(CC4)C3C2=O)C(=O)N1 (configuration not stated)
T/C (dose: 100.0 mg/kg/injection, schedule: Q04DX003 (ip), vehicle: saline): 97 % of control | T/C (dose: 200.0 mg/kg/injection, schedule: Q04DX003 (ip), vehicle: saline): 102 % of control | T/C (dose: 400.0 mg/kg/injection, schedule: Q04DX003 (ip), vehicle: saline): 90 % of control

CC1CN1C(=O)OCCOC(=O)N1CC1C (configuration not stated)
T/C (dose: 200.0 mg/kg/injection, schedule: Q01DX Z (ip), vehicle: saline): 108 % of control | T/C (dose: 444.0 mg/kg/injection, schedule: Q01DX009 (ip), vehicle: saline): 104 % of control | T/C (dose: 450.0 mg/kg/injection, schedule: Q01DX Z (ip), vehicle: saline): 188 % of control | T/C (dose: 666.0 mg/kg/injection, schedule: Q01DX009 (ip), vehicle: saline): 107 % of control | T/C (dose: 675.0 mg/kg/injection, schedule: Q01DX Z (ip), vehicle: saline): 195 % of control | T/C (dose: 750.0 mg/kg/injection, schedule: Q01DX001 (ip), vehicle: saline): 117 % of control | T/C (dose: 1000.0 mg/kg/injection, schedule: Q01DX009 (ip), vehicle: saline): 115 % of control | T/C (dose: 1500.0 mg/kg/injection, schedule: Q01DX001 (ip), vehicle: saline): 106 % of control | T/C (dose: 1500.0 mg/kg/injection, schedule: Q01DX009 (ip), vehicle: saline): 96 % of control

O=C(Nc1ccc(C2=NCCN2)cc1)c1ccc(Cl)c(C(=O)Nc2ccc(C3=NCCN3)cc2)c1
T/C (dose: 2.0 mg/kg/injection, schedule: Q01DX Z (ip), vehicle: carboxymethylcellulose (CMC)): 97 % of control | T/C (dose: 3.75 mg/kg/injection, schedule: Q01DX Z (ip), vehicle: water): 102 % of control | T/C (dose: 4.0 mg/kg/injection, schedule: Q01DX Z (ip), vehicle: carboxymethylcellulose (CMC)): 98 % of control | T/C (dose: 7.5 mg/kg/injection, schedule: Q01DX Z (ip), vehicle: carboxymethylcellulose (CMC)): 106 % of control | T/C (dose: 7.5 mg/kg/injection, schedule: Q01DX Z (ip), vehicle: water): 102 % of control | T/C (dose: 15.0 mg/kg/injection, schedule: Q01DX Z (ip), vehicle: carboxymethylcellulose (CMC)): 95 % of control | T/C (dose: 15.0 mg/kg/injection, schedule: Q01DX Z (ip), vehicle: saline): 115 % of control and 92 % of control | T/C (dose: 15.0 mg/kg/injection, schedule: Q01DX Z (ip), vehicle: water): 106 % of control | T/C (dose: 30.0 mg/kg/injection, schedule: Q01DX Z (ip), vehicle: saline): 118 % of control and 97 % of control | T/C (dose: 60.0 mg/kg/injection, schedule: Q01DX Z (ip), vehicle: saline): 100 % of control

Cc1c(CO)[nH]c(=S)[nH]c1=O
T/C [15]: 103 % of control | T/C (dose: 50.0 mg/kg/injection, schedule: Q04DX003 (ip), vehicle: Klucel (hydroxypropylcellulose) (HPC)): 100 % of control | T/C [16]: 95 % of control | T/C [2]: 92 % of control | T/C [17]: 97 % of control | T/C [4]: 89 % of control

O=c1cc(NCc2cccc([N+](=O)[O-])c2)[nH]c(=O)[nH]1
T/C [15]: 91 % of control | T/C [16]: 89 % of control | T/C [17]: 93 % of control
